In PMC10780175, “In Silico and In Vivo Pharmacokinetic Evaluation of 84-B10, a Novel Drug Candidate against Acute Kidney Injury and Chronic Kidney Disease” (Molecules, 2023):
Read-outs that look alike come from different tables or passages of the source.

Legend:
[1] = molecular target: Lon protease 1 (LONP1); design: method as in PMID 36629048; details: cited from earlier work
[2] = Tissue distribution in rats after intraperitoneal injection; type: in vivo, Sprague Dawley rats; details: intraperitoneal 0.36 mg/kg
Description: (§1) The validated UPLC-MS/MS method was successfully applied to the pharmacokinetic study and tissue distribution in rats after an intraperitoneal injection of 84-B10 (0.36 mg/kg). […] Two hours later, the plasma concentration tended to flatten out, with a concentration of approximately 10 ng/mL. AUC0–t and AUC0–∞ were 269 and 278 h*ng/mL, respectively. After an intraperitoneal administration, 84-B10 could be detected in different tissues, indicating a wide distribution (Figure 4). The compound rapidly distributed and reached maximum concentration at 0.033 h for most tissues. […] In most tissues, 84-B10 was eliminated at 8 h.
(§2) After one week of adaptive feeding, pharmacokinetic experiments were conducted. 84-B10 (0.36 mg/kg) solution was injected and blood was collected into tubes containing heparin sodium at 0.033, 0.083, 0.25, 0.5, 1, 2, 4, 6 and 8 h after administration. Blood was centrifuged at 8000 rpm for 5 min to obtain the plasma. The tissue was accurately weighed and ground with pure water (w:v, 1:5) to obtain homogenate. An amount of 50 µL of biological matrix was precipitated with 200 μL of methanol containing IS (Ginkgolide J, 2 μg/mL). After vortexing for 5 min, the samples were centrifuged at 12,000 rpm for 5 min and the supernatant was taken for injection.

[3] = design: method as in PMID 36629048; details: mice, intraperitoneal 5 mg/kg, plasma, non-compartmental WinNonlin 7.0 on concentrations from previous publication; cited from earlier work
[4] = Pharmacokinetic study in rats after intraperitoneal injection (UHPLC-MS/MS); type: in vivo, Sprague Dawley rats; details: for Cmax / AUC(0-inf) / AUC(0-t) / Tmax / half-life: ip
Description: as §1
84-B10 was determined and quantified by ExionLC system coupled with SCIEX 4500 triple quadrupole mass spectrometers (SCIEX, Framingham, MA, USA). A phenyl HPLC column (50 × 2.1 mm, 3 μm) (YMC, Kyoto, Japan) was used for separation. Methanol was selected as the organic phase as it could better reflect the π-π selectivity between benzene and the chromatographic column. An amount of 5 mM ammonium formate was added into water to adjust the dissociation of 84-B10 and to improve the chromatographic peak. The flow rate was 0.3 mL/min with gradient elution (Table 8).
as §2

[5] = test system: cisplatin-induced acute kidney injury; design: method as in PMID 36403736, PMID 36629048; details: mice, 5 mg/kg; cited from earlier work
[6] = test system: renal fibrosis induced by unilateral ureteral obstruction (UUO) or unilateral ischemia reperfusion injury (UIRI); design: method as in PMID 36403736, PMID 36629048; details: mice, dose of 0.5–7.5 mg/kg; cited from earlier work
[7] = Stability of 84-B10 in rat plasma under different storage conditions; type: in vitro ADME; details: n = 6
Description: The method was validated according to the Bioanalytical Method Validation Guidance for Industry issued by Food and Drug Administration of USA in 2018. In short, blank plasma from six different rats was collected and spiked with or without LLOQ working solutions to evaluate the sensitivity. The linear least square method was used to fit the standard curve, and the weighting coefficient was 1/x^2. The precision and accuracy were evaluated by analyzing three different concentrations of quality control samples in three consecutive days. Blank plasma was first precipitated with methanol and then spiked with QC working solutions into supernatant. The peak area was compared with QC samples to estimate the extraction recovery. Alternatively, blank plasma was replaced with ultrapure water and mixed with QC working solutions. The matrix effect was then evaluated. For stability evaluation, different concentrations of QC samples were stored at room temperature for 2 h, frozen–thawed for three cycles, or stored in an auto-sampler (extracted samples, 4 °C) for 24 h and then analyzed.

[8] = test system: LonP1; design: method as in PMID 36629048; details: cited from earlier work
[9] = Sprague Dawley, rat, plasma, single intraperitoneal injection 0.36 mg/kg, female, mean ± SD
[10] = Sprague Dawley, rat, plasma, single intraperitoneal injection 0.36 mg/kg, male, mean ± SD
[11] = both sexes, Sprague Dawley, rat, plasma, single intraperitoneal injection 0.36 mg/kg, total (male and female), mean ± SD
[12] = extracted rat plasma samples, autosampler 4 °C for 24 h, spiked 3 ng/mL
[13] = extracted rat plasma samples, autosampler 4 °C for 24 h, spiked 300 ng/mL
[14] = extracted rat plasma samples, autosampler 4 °C for 24 h, spiked 750 ng/mL
[15] = rat plasma, room temperature for 2 h, spiked 3 ng/mL
[16] = rat plasma, room temperature for 2 h, spiked 300 ng/mL
[17] = rat plasma, room temperature for 2 h, spiked 750 ng/mL
[18] = rat plasma, three freeze–thaw cycles, spiked 3 ng/mL
[19] = rat plasma, three freeze–thaw cycles, spiked 300 ng/mL
[20] = rat plasma, three freeze–thaw cycles, spiked 750 ng/mL

COc1ccc(Oc2ccc(C(F)(F)F)cc2NC(=O)CC(CC(=O)O)c2ccccc2)cc1 (stereo not shown) [84-B10, 5-[[2-(4-methoxyphenoxy)-5-(trifluoromethyl)phenyl]amino]-5-oxo-3-phenylpentanoic acid]
Kd ([1]; previous research, read-out: binding affinity): 312 nM
binding affinity ([1]; same value expressed in ng/mL): 147 ng/mL
Tmax ([2]; Sprague Dawley, rat, most tissues (tissue homogenate), ip, most tissues, read-out: time of maximum concentration in most tissues): 1.98 min
tissues with highest concentration [2]: most concentrated in the intestine, stomach, liver, kidney and lung
time at which eliminated in most tissues ([2]; most tissues): 8 h
AUC0→t, observed [3]: 1327 ng·h/mL
Cl, observed [3]: 56.8 mL/min/kg
Cmax, observed [3]: 2038 ng/mL
Vd, observed [3]: 11.20 L/kg
Cmax ([4]; Sprague Dawley, rat, intraperitoneal 0.36 mg/kg, plasma, non-compartmental WinNonlin 7.0, read-out: Cmax, observed): 257 ng/mL
concentration at 2 h ([4]; Sprague Dawley, rat, plasma, intraperitoneal 0.36 mg/kg, 2 h after injection, curve flattens out, read-out: plasma concentration two hours later): ~10 ng/mL
AUC(0-inf) [4, 9]: 241 ± 29 ng·h/mL
AUC(0-t) [4, 9]: 233 ± 27 ng·h/mL
Tmax [4, 9]: 8.4 ± 6 min
half-life [4, 9]: 25.8 ± 2.4 min
Cmax ([4]; Sprague Dawley, rat, plasma, single intraperitoneal injection 0.36 mg/kg, female, mean ± SD, read-out: Cmax): 231 ± 2.08 ng/mL
AUC(0-inf) [4, 10]: 315 ± 31 ng·h/mL
AUC(0-t) [4, 10]: 305 ± 30.2 ng·h/mL
Tmax [4, 10]: 11.4 ± 6 min
half-life [4, 10]: 27 ± 1.2 min
Cmax ([4]; Sprague Dawley, rat, plasma, single intraperitoneal injection 0.36 mg/kg, male, mean ± SD, read-out: Cmax): 284 ± 48.2 ng/mL
AUC(0-inf) [4, 11]: 278 ± 48.9 ng·h/mL
AUC(0-t) [4, 11]: 269 ± 47.3 ng·h/mL
Tmax [4, 11]: 10.2 ± 5.4 min
half-life [4, 11]: 26.4 ± 1.8 min
Cmax ([4]; both sexes, Sprague Dawley, rat, plasma, single intraperitoneal injection 0.36 mg/kg, total (male and female), mean ± SD, read-out: Cmax): 257 ± 42.4 ng/mL
gender difference in the absorption ([4]; intraperitoneal 0.36 mg/kg, male vs female): no significant gender difference
Cl, observed ([4]; intraperitoneal 0.36 mg/kg, plasma, non-compartmental WinNonlin 7.0): 22.2 mL/min/kg
CL ([4]; single intraperitoneal injection 0.36 mg/kg, female, mean ± SD): 25.15 ± 2.95 mL/min/kg
CL ([4]; single intraperitoneal injection 0.36 mg/kg, male, mean ± SD): 19.15 ± 1.98 mL/min/kg
CL ([4]; single intraperitoneal injection 0.36 mg/kg, total (male and female), mean ± SD): 22.15 ± 3.98 mL/min/kg
therapeutic effect on cisplatin-induced acute kidney injury [5]: significant therapeutic effect
effect on renal fibrosis induced by UUO or UIRI [6]: dose-dependently alleviated renal fibrosis
Measured Concentrations [7, 12]: 3.15 ± 0.11 ng/mL
RE [7, 12]: 5.00%
Measured Concentrations [7, 13]: 299 ± 10 ng/mL
RE [7, 13]: −0.33%
Measured Concentrations [7, 14]: 710 ± 27 ng/mL
RE [7, 14]: −5.38%
Measured Concentrations [7, 15]: 2.96 ± 0.10 ng/mL
RE [7, 15]: −1.50%
Measured Concentrations [7, 16]: 278 ± 3 ng/mL
RE [7, 16]: −7.44%
Measured Concentrations [7, 17]: 670 ± 15 ng/mL
RE [7, 17]: −10.7%
Measured Concentrations [7, 18]: 2.87 ± 0.29 ng/mL
RE [7, 18]: −4.22%
Measured Concentrations [7, 19]: 287 ± 20 ng/mL
RE [7, 19]: −4.28%
Measured Concentrations [7, 20]: 684 ± 18 ng/mL
RE [7, 20]: −8.87%
LonP1 activation [8]: new LonP1 activator
